Test results reported in patent US12662451B2, “Chemical compounds and uses thereof” (GLAXOSMITHKLINE INTELLECTUAL PROPERTY (NO.4) LIMITED, priority 2023, dated 2026).
Where a name gives a salt, the structure may show the parent alone.

Tests used:
[1] = tested on: SW48 human colorectal cancer cells (MSI-H cancer cells); assay: SW48 cell viability, CellTiter-Glo, 120 hours (Example B); settings: for CC50: Homo sapiens, SW48, 120 h, read-out: SW48 pCC50, SW48 cell viability, 120 hours incubation (converted)
Description: SW48 human colorectal cancer cells (MSI-H cancer cells) were obtained from the American Type Culture Collection and maintained in growth medium composed of RPMI-1640 supplemented with 10% fetal bovine serum. Cells were maintained in a humidified 5% CO2 incubator at 37° C. Cell dissociation was conducted using TrypLE Select to detach cells from culture flasks. Following dissociation, cells were centrifuged briefly and resuspended in assay medium RPMI-1640+10% fetal bovine serum. Black 384-well assay plates were prepared from source plates of DMSO and compounds dissolved in DMSO prior to cell dispensation. These source plates were prepared in eleven point, 3-fold serial dilutions from 10 mM stocks stored at 4° C. Compounds and DMSO controls were dispensed into assay plates at 150 nanoliters per well from source plates using Labcyte Echo 555 or Echo 655T dispensers with Column 6 and Column 18 containing DMSO only. Cells were then seeded into prepared assay plates in 50 microliters assay medium at 250 cells per well into Columns 1 thru 17 and Columns 19-24. Assay medium without cells was added to column 18 to serve as a surrogate for 100% cell cytotoxicity. Following incubation for 120 hours in a humidified 5% CO2 incubator at 37° C., cellular ATP concentration of each well was measured and used as a surrogate of cell viability. This was performed by adding 50 microliters of CellTiter-Glo reagent to each well followed by a 10-minute incubation at room temperature. Luminescence was measured on a Synergy Neo or Synergy Neo2 multimode plate reader. Compound cytotoxic response (% C) was normalized to the robust means of column 6 (Control 1, 0% Cytotoxicity) and column 18 (Control 2, 100% Cytotoxicity) and normalized % cytotoxicity (% C) calculated. % C=100−100*((Compound−Control 2)/(Control1−Control2)). These normalized data were then used to determine a 50% cytotoxic response (CC50) using 4-parameter logistic curve model 201 in Activity Base XE:
[formula] • where A=minimum asymptote (% cytotoxicity), B=maximum asymptote (% cytotoxicity), C=Log CC50 (pCC50), D=Hill slope, and x=[inhibitor], (M).

[2] = biological target: T1, recombinant full-length WRN protein (1-1432) (Homo sapiens, UniProt Q14191); assay: WRN unwinding activity, fluorogenic 384-well assay (Example A); type: biochemical; settings: WRN unwinding activity, Table 2; for IC50: 4 hr, read-out: 4 hr UNW pIC50 (converted)
T1 construct: recombinant full-length WRN protein (1-1432)
T1 sequence (Q14191 whole entry): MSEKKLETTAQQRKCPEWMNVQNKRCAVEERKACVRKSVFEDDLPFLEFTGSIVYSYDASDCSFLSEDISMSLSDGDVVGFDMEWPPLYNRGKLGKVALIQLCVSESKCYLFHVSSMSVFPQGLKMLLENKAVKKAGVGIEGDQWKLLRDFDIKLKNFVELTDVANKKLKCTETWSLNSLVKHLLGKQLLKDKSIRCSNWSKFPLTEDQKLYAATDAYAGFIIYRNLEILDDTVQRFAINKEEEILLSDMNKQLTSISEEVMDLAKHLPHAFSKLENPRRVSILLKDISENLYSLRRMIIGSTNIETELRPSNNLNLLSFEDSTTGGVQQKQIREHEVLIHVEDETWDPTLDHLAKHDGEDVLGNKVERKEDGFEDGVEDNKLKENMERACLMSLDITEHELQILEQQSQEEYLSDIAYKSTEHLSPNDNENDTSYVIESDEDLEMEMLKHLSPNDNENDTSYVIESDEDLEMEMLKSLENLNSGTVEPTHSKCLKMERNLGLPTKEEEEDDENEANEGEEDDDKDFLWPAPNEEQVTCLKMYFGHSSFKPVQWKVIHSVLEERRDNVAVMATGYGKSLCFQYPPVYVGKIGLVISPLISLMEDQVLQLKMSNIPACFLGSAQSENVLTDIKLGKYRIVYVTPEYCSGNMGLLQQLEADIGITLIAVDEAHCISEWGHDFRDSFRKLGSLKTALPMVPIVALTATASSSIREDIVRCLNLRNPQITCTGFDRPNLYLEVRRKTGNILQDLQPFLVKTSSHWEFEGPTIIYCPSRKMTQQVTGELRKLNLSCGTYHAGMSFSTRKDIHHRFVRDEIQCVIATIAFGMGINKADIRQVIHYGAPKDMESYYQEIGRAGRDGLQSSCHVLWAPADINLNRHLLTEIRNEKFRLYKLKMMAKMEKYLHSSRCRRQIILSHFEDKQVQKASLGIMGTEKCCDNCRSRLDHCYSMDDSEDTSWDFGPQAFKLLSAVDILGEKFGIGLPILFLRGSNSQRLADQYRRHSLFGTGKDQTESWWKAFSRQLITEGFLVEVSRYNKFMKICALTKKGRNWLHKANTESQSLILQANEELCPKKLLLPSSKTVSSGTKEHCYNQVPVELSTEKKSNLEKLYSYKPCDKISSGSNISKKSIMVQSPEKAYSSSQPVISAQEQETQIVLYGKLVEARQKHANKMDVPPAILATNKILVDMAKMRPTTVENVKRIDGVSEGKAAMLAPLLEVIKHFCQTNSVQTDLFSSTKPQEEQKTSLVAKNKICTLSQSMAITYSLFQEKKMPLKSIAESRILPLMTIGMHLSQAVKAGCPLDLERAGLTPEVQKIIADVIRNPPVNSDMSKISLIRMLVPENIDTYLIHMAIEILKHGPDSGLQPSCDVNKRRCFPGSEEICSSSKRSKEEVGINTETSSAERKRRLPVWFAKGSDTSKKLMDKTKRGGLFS
Summary of the method: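 Read-out is end-point unwinding of a fluorophore/quencher duplex (ex 525, em 598 nm) after 60 min with 200 μM ATP and 12 nM DNA (2× stocks), EDTA stop. Compound first sat 4 h with 200 pM WRN (2× stock) in pH 8.0 Tris buffer; four-parameter fit gives pIC50.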

[3] = tested on: SW48 human colorectal cancer cells; assay: Calculated free drug potency in SW48 cell assay, corrected with media free fraction (Example C); type: cell-based; settings: SW48 pCC50 corrected with measured free fraction in cell assay media
Description: It was observed that the compounds of the present disclosure are bound to cell assay media to various degrees, which would affect the cellular potency analysis in Example B. To measure free drug potency, concentrations used in the cell assays were corrected with the measured free fraction determined in the cell assay media. Compounds were incubated in a rapid equilibrium dialysis (RED) at a nominal concentration of 1 μM, using a dialysis buffer of phosphate-buffered saline (PBS, 100 mM sodium phosphate+150 mM sodium chloride, pH 7.4). The test compound was spiked into the medium. Aliquots were added to the donor wells of a RED plate in triplicate, and blank PBS was added to each receiver well, at volumes recommended by the manufacturer. Plates were incubated with shaking at 200 rpm for 4 hours at 37° C. The resultant samples were analysed by LC-MS/MS using a specific and sensitive method. Results were reported as analyte:internal standard peak area ratios (PARs), and the percent unbound was calculated with the following equation:
[formula] where Cfinal=PAR in the T=240 minute sample; Cinitial=PAR in the T=0 minute sample. Cell culture media unbound percentage and calculated free drug potency of selected compounds along with their measured potency from Example B are shown in Table 3.

[4] = SW48 cell viability, 120 hours incubation, Table 2
[5] = measured potency from Example B, as repeated in Table 3

Row | Compound | 4 hr UNW pIC50 [2] | IC50 [2] | SW48 pCC50 [1, 4] | SW48 pCC50 [1, 5] | Free Drug SW48 pCC50 [3] | CC50 ([1]; Table 2)
1 | Cc1nc2cc(S(=O)(=O)N(C)c3ccc([C@H]4C[C@@H]5OCC[C@@H]5[C@@H](C(=O)Nc5ccc(C(F)(F)F)cc5F)[C@@H]4C(=O)O)cc3)ccc2n1C (single isomer, unassigned) [Example 158] |  | 0.0316 µM | 5.4 | 5.4 | 6.03 | 
2 | Cc1nc2cc(S(=O)(=O)N(C)c3ccc([C@H]4CCC[C@@H](C(=O)Nc5ccc(C(F)(F)F)cc5F)[C@@H]4C(=O)O)cc3Br)ccc2n1C [Example 166, (1R,2S,6R)-2-(3-bromo-4-((N,1,2-trimethyl-1H-benzo[d]imidazole)-5-sulfonamido)phenyl)-6-((2-fluoro-4-(trifluoromethyl)phenyl)carbamoyl)cyclohexane-1-carboxylic acid] |  | 0.00794 µM |  |  |  | 2.51 µM
3 | Cc1nc2cc(S(=O)(=O)N(C)c3ccc([C@H]4CCC[C@@H](C(=O)Nc5ccc(C(F)(F)F)cc5F)[C@@H]4C(=O)O)cc3C#CC(C)(C)O)ccc2n1C [Example 167, (1R,2R,6S)-2-((2-fluoro-4-(trifluoromethyl)phenyl)carbamoyl)-6-(3-(3-hydroxy-3-methylbut-1-yn-1-yl)-4-((N,1,2-trimethyl-1H-benzo[d]imidazole)-5-sulfonamido)phenyl)cyclohexane-1-carboxylic acid] |  | 0.00501 µM |  |  |  | 20 µM
4 | Cc1nc2cc(S(=O)(=O)N(C)c3ccc([C@H]4CCC[C@@H](C(=O)NC56CC(CC(F)(F)F)(C5)C6)[C@@H]4C(=O)O)cc3)ccc2n1C [Example 174, (1R,2R,6S)-2-((3-(2,2,2-trifluoroethyl)bicyclo[1.1.1]pentan-1-yl)carbamoyl)-6-(4-((N,1,2-trimethyl-1H-benzo[d]imidazole)-5-sulfonamido)phenyl)cyclohexane-1-carboxylic acid] |  | 0.02 µM |  |  |  | 10 µM
5 | Cc1nc2cc(S(=O)(=O)N(C)c3ccc([C@H]4CCC[C@@H](C(=O)Nc5ccc(C6CCC6)cc5F)[C@@H]4C(=O)O)cc3)ccc2n1C [Example 175, (1R,2R,6S)-2-((4-cyclobutyl-2-fluorophenyl)carbamoyl)-6-(4-((N,1,2-trimethyl-1H-benzo[d]imidazole)-5-sulfonamido)phenyl) cyclohexane-1-carboxylic acid] |  | 0.00316 µM |  |  |  | 1.58 µM
6 | CC[C@H]1CC[C@H](NC(=O)[C@@H]2CCC[C@H](c3ccc(N(C)S(=O)(=O)c4ccc5c(c4)nc(C)n5C)cc3)[C@H]2C(=O)O)CC1 [Example 176, (1R,2R,6S)-2-(((1r,4R)-4-ethylcyclohexyl)carbamoyl)-6-(4-((N, 1,2-trimethyl-1H-benzo[d]imidazole)-5-sulfonamido)phenyl)cyclohexane-1-carboxylic acid] |  | 0.00126 µM |  |  |  | 1.26 µM
7 | Cc1nc2cc(S(=O)(=O)N(C)c3ccc([C@H]4CCC[C@@H](C(=O)N[C@H]5CC[C@H](C(C)(C)F)CC5)[C@@H]4C(=O)O)cc3)ccc2n1C [Example 182, (1R,2R,6S)-2-(((1r,4R)-4-(2-fluoropropan-2-yl)cyclohexyl)carbamoyl)-6-(4-((N, 1,2-trimethyl-1H-benzo[d]imidazole)-5-sulfonamido)phenyl)cyclohexane-1-carboxylic acid] |  | 0.00251 µM |  |  |  | 1.58 µM
8 | Cc1nc2cc(S(=O)(=O)N(C)c3ccc([C@H]4CCC[C@@H](C(=O)NC56CC(C7CCCC7)(C5)C6)[C@@H]4C(=O)O)cc3)ccc2n1C [Example 187, (1R,2R,6S)-2-((3-cyclopentylbicyclo[1.1.1]pentan-1-yl)carbamoyl)-6-(4-((N,1,2-trimethyl-1H-benzo[d]imidazole)-5-sulfonamido)phenyl)cyclohexane-1-carboxylic acid, formic acid salt] |  | 0.00631 µM |  |  |  | 3.98 µM
9 | Cc1nc2cc(S(=O)(=O)N(C)c3ccc([C@H]4CCC[C@@H](C(=O)N[C@H]5CC[C@H](C6CCC6)CC5)[C@@H]4C(=O)O)cc3)ccc2n1C [Example 188, (1R,2R,6S)-2-(((1r,4R)-4-cyclobutylcyclohexyl)carbamoyl)-6-(4-((N,1,2-trimethyl-1H-benzo[d]imidazole)-5-sulfonamido)phenyl)cyclohexane-1-carboxylic acid] |  | 0.00251 µM |  |  |  | 2.51 µM
10 | CCC[C@H]1CC[C@H](NC(=O)[C@@H]2CCC[C@H](c3ccc(N(C)S(=O)(=O)c4ccc5c(c4)nc(C)n5C)cc3)[C@H]2C(=O)O)CC1 [Example 190, (1R,2R,6S)-2-(((1s,4R)-4-propylcyclohexyl)carbamoyl)-6-(4-((N,1,2-trimethyl-1H-benzo[d]imidazole)-5-sulfonamido)phenyl)cyclohexane-1-carboxylic acid] |  | 0.00158 µM |  |  |  | 3.98 µM

Now from value to compound, other results behind:

Row | 4 hr UNW pIC50 [2] | IC50 [2] | Compound | SW48 pCC50 [1, 4] | SW48 pCC50 [1, 5] | Free Drug SW48 pCC50 [3] | CC50 ([1]; Table 2)
11 | 9.0 |  | Cc1nc2cc(S(=O)(=O)N(C)c3ccc([C@H]4CCC[C@@H](C(=O)Nc5ccc(C(F)(F)F)cc5F)[C@@H]4C(=O)O)cc3)cc(C3CCCN(C)C3)c2n1C (relative stereo) [Example 270, (1R,2R,6S)-2-((2-fluoro-4-(trifluoromethyl)phenyl)carbamoyl)-6-(4-((N,1,2-trimethyl-7-((S*)-1-methylpiperidin-3-yl)-1H-benzo[d]imidazole)-5-sulfonamido)phenyl)cyclohexane-1-carboxylic acid] | 6.5 | 6.5 | 7.18 | 
12 |  | 0.00794 µM | Cc1nc2cc(S(=O)(=O)N(C)c3ccc([C@H]4C[C@@H](N5CCOCC5)C[C@@H](C(=O)Nc5ccc(C(F)(F)F)cc5F)[C@@H]4C(=O)O)cc3)ccc2n1C (single isomer, unassigned) [Example 340] | 5.1 | 5.1 | 5.99 | 
13 |  | 0.0794 µM | Cc1nc2cc(S(=O)(=O)N(C)c3ccc([C@H]4CCC[C@@H](CO[C@H]5CC[C@H](C(F)(F)F)CC5)[C@@H]4C(=O)O)cc3)ccc2n1C [Example 215, (1R,2R,6S)-2-((((1r,4R)-4-(trifluoromethyl)cyclohexyl)oxy)methyl)-6-(4-((N,1,2-trimethyl-1H-benzo[d]imidazole)-5-sulfonamido)phenyl)cyclohexane-1-carboxylic acid] |  |  |  | 20 µM
14 |  | 0.00501 µM | Cc1nc2cc(S(=O)(=O)N(C)c3ccc([C@H]4CCC[C@@H](COc5ccc(C(F)(F)F)cc5)[C@@H]4C(=O)O)cc3)ccc2n1CCN [Example 216, (1R,2S,6R)-2-(4-((1-(2-aminoethyl)-N,2-dimethyl-1H-benzo[d]imidazole)-5-sulfonamido)phenyl)-6-((4-(trifluoromethyl)phenoxy)methyl)cyclohexane-1-carboxylic acid, 0.41 formic acid salt] |  |  |  | 12.6 µM
15 |  | 0.0126 µM | CCN(c1ccc([C@H]2CCC[C@@H](C(=O)Nc3ccc(C(F)(F)F)cc3F)[C@@H]2C(=O)O)cc1)S(=O)(=O)c1ccc2c(c1)nc(C)n2C [Example 233] |  |  |  | 5.01 µM
16 |  | 0.00398 µM | Cc1nc2cc(S(=O)(=O)N(c3ccc([C@H]4CCC[C@@H](C(=O)Nc5ccc(C(F)(F)F)cc5F)[C@@H]4C(=O)O)cc3)C3CC3)ccc2n1C [Example 238, (1R,2S,6R)-2-(4-((N-cyclopropyl-1,2-dimethyl-1H-benzo[d]imidazole)-5-sulfonamido)phenyl)-6-((2-fluoro-4-(trifluoromethyl)phenyl)carbamoyl)cyclohexane-1-carboxylic acid] |  |  |  | 2 µM
17 |  | 0.00316 µM | CN(c1ccc([C@H]2CCC[C@@H](C(=O)Nc3ccc(C(F)(F)F)cc3F)[C@@H]2C(=O)O)cc1)S(=O)(=O)c1ccc(O)c(C=O)c1 [Example 248] |  |  |  | 3.98 µM
18 |  | 0.002 µM | CN(c1ccc([C@H]2CCC[C@@H](C(=O)Nc3ccc(C(F)(F)F)cc3F)[C@@H]2C(=O)O)cc1)S(=O)(=O)c1ccc2c(c1)CNCC2 [Example 260, (1R,2R,6S)-2-((2-fluoro-4-(trifluoromethyl)phenyl)carbamoyl)-6-(4-((N-methyl-1,2,3,4-tetrahydroisoquinoline)-7-sulfonamido)phenyl)cyclohexane-1-carboxylic acid hydrochloride] |  |  |  | 1.58 µM
19 |  | 0.0158 µM | CN(c1ccc([C@H]2CCC[C@@H](C(=O)Nc3ccc(C(F)(F)F)cc3F)[C@@H]2C(=O)O)cc1)S(=O)(=O)c1ccc(Br)c(O)c1 [Example 274, (1R,2S,6R)-2-(4-((4-bromo-3-hydroxy-N-methylphenyl)sulfonamido)phenyl)-6-((2-fluoro-4-(trifluoromethyl)phenyl)carbamoyl)cyclohexane-1-carboxylic acid] |  |  |  | 15.8 µM
